Assay results as given in patent US20130203146A1, “MICROFABRICATED SCAFFOLD STRUCTURES” (priority 2010, published 2013).

Tested on: HUVECs
Experiment: Cytotoxicity of [Rull(bpy)3]^2+ on HUVECs (MTT assay)
Format: cell-based, human
Procedure: FIG. 3 is a graph illustrative of the effect of [Rull(bpy)3]^2+ concentration on the viability of HUVECs. Absorbance of the MTT assay was determined at 490 nm.
HUVECs (CRL-2873™) thawed from cryopreservation was cultured in Endogro Supplement medium kit (Millipore) supplemented with 1% penicillin streptomycin. Cells were recovered from tissue culture dishes/T25 flask with 0.05% trypsin-ethylenediaminetetraacetic acid (EDTA) in PBS. The cells were routinely passaged at 1/5 confluency. All cells were incubated at 37° C. in a humidified, 5% CO2 atmosphere.

**Q.** With `[Cl-].[Cl-].[Ru+2].c1ccc(-c2ccccn2)nc1.c1ccc(-c2ccccn2)nc1.c1ccc(-c2ccccn2)nc1` [[Rull(bpy)3]^2+, ruthenium II trisbipyridyl chloride [RuII(bpy)3]^2+] as the compound, how does the “safe range of [Rull(bpy)3]^2+ concentrations” value (HUVECs, MTT assay, absorbance at 490 nm) read?
**A.** 0.5 to 3.5 mM

**Q.** And the “viability of HUVECs” value (higher [Rull(bpy)3]^2+ concentration than the safe range, lower absorbance at 490 nm)?
**A.** reduce the viability of HUVECs
